These results are taken from patent publication US20170196878A1, “USE OF CBP/EP300 AND BET INHIBITORS FOR TREATMENT OF CANCER” (GENENTECH, INC., priority 2014, published 2017).

The structures appear in SMILES notation.

One assay relates to IRF4 mRNA expression. In words: IRF4 mRNA expression in LP-1 cells by q-RTPCR. In kind it is cell-based. Conditions: 6 h, q-RTPCR normalized to GAPDH. The protocol: FIG. 8. CBP/EP300 and BET bromodomain inhibition have distinct transcriptional effects. […] Expression values for replicate compound treated samples were normalized to paired DMSO controls to obtain log2 fold change values. […] Cells were treated with compound for 6 h, and mRNA expression was assessed with q-RTPCR and normalized to GAPDH. Values represent the mean of n=3, ±SEM. […] LP-1 cells were treated with a titration of CPI203 for 6 h, and IRF4 expression was determined by q-RTPCR and normalized to GAPDH. Values represent the mean of n=2, ±SEM.

Assay [1] has as its target ZsGreen-bromodomain fusion protein (BRD4) (Homo sapiens, UniProt O60885). As to the kind of experiment: Release of chromatin-bound ZsGreen-bromodomain fusion protein (BRD4), high content imaging of nuclear foci. As to conditions: read-out: Calculated EC50, release of chromatin-bound ZsGreen-BRD4 bromodomain fusion protein, number of nuclear foci.
Source text: (§1) Release of chromatin-bound ZsGreen-bromodomain fusion proteins in the presence of compound was monitored with high content imaging. Each curve represents the indicated compound and the indicated fusion protein (BRD4 or CBP). The number of nuclear foci increases with compound target engagement (values are mean of four fields per well of two technical replicates, +SEM).
The target in assay [2] is T1, ZsGreen-bromodomain fusion protein (CBP) (Homo sapiens, UniProt Q92793).
T1 construct: expressed in transfected cells
As to the kind of experiment: Release of chromatin-bound ZsGreen-bromodomain fusion protein (CBP), high content imaging of nuclear foci. Type of assay: cell-based. As to conditions: number of nuclear foci, read-out: Calculated EC50, release of chromatin-bound ZsGreen-CBP bromodomain fusion protein.
Source text: as §1

T1 sequence (Q92793 1085-1192 limits assumed): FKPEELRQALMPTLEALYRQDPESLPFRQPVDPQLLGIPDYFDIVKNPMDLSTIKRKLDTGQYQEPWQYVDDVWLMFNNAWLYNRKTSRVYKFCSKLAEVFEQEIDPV

For the compound `COc1ccc(CCc2nc3cc(-c4c(C)noc4C)ccc3n2C[C@H](C)N2CCOCC2)cc1Cl` [SGC-CBP30], in the assay on IRF4 mRNA expression, the “IRF4 mRNA expression” value is “Dose-dependent inhibition”. In addition, the EC50 in assay [1] is 21.5 µM.
Consider `Cc1sc2c(c1C)C(c1ccc(Cl)cc1)=N[C@@H](CC(N)=O)c1nnc(C)n1-2` [CPI203], for which the EC50 was 1.8 µM in assay [2] and 0.08 µM in assay [1]. Moreover, the “IRF4 mRNA expression” value with IRF4 mRNA expression is reported as “does not directly regulate”.
Take `CCC(=O)N1CCOc2c(cc(-c3ccc(OC)c(OC)c3)cc2OC[C@H]2CCCN(C)C2)C1` [I-CBP112]: the EC50 in assay [2] was 2.6 µM; in assay [1], > 20 µM.
